Experiment [1] addresses human serotonin transporter (Homo sapiens (Human), UniProt P31645). Kind of experiment: Serotonin functional uptake assay, recombinant human transporter in HEK-293 cells. The experiment is classed as cell-based.
In experiment [2] the target is human dopamine transporter (Homo sapiens (Human), UniProt Q01959). Kind of experiment: Dopamine functional uptake assay, recombinant human transporter in CHO-K1 or HEK293 cells. The experiment is classed as cell-based. As to conditions: read-out: hDAT IC50.
human dopamine transporter, sequence (Q01959 whole entry): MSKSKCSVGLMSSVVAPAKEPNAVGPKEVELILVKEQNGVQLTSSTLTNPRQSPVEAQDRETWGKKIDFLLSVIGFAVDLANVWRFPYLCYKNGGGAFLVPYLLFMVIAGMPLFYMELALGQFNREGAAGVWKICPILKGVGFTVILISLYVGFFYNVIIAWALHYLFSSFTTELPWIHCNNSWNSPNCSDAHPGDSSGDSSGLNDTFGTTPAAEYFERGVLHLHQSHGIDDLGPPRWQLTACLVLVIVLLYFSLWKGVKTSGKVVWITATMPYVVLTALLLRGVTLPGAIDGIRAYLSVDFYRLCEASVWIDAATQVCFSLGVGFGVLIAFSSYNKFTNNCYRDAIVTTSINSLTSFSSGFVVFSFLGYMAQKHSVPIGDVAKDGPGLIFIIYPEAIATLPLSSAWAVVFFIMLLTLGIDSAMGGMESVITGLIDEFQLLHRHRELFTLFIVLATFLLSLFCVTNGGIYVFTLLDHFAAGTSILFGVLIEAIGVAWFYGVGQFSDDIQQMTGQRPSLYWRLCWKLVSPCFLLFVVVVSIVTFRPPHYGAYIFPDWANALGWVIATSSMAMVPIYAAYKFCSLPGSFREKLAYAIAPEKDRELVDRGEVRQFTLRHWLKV
Experiment [3] addresses 5-HT Transporter (SERT) sites in mouse brain (Mus musculus (Mouse), UniProt Q60857). Kind of experiment: Ex vivo [3H] citalopram binding to SERT sites in mouse brain after oral dosing. As to conditions: mice, 60 min after treatment.
In experiment [4] the target is DA Transporter (DAT) sites in mouse brain (Mus musculus (Mouse), UniProt Q61327). Kind of experiment: Ex vivo [3H] WIN 35428 binding to DAT sites in mouse brain after oral dosing. As to conditions: mice, 60 min after treatment.
[5] abbreviates: Human serotonin transporter uptake, read-out: hSERT IC50.

Where two headings read alike, the source gives them in different places.

A word on the IC50: it is the concentration that gives 50% inhibition.

human serotonin transporter, sequence (P31645 whole entry): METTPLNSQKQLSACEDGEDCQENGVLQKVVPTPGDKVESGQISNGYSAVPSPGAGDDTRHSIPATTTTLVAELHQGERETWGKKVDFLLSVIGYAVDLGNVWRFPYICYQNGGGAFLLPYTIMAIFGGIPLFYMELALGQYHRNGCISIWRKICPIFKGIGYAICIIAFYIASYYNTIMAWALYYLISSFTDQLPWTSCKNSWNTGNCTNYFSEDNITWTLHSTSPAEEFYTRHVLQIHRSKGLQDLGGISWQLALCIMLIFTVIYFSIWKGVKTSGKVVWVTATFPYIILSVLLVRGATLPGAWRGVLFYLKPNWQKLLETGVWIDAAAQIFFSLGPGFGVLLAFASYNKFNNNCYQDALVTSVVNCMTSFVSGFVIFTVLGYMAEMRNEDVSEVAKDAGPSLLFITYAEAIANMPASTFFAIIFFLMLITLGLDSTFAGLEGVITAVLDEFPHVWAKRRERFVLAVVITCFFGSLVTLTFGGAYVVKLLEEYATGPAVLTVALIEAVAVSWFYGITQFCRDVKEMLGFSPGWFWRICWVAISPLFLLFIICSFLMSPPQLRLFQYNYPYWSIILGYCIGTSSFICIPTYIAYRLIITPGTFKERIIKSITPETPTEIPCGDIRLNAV

`CN(C)C[C@@]1(c2ccc(C(F)(F)F)cc2)CCCC[C@H]1O` (single isomer, unassigned) [159 E2, cis-2-((dimethylamino)methyl)-2-(4-(trifluoromethyl)phenyl)cyclohexanol]: the half-maximal inhibitory concentration (IC50) was 42 nM in experiment [1] (setting [5]) and 2310 nM in experiment [2].
Take `NC[C@]1(c2ccc(Cl)c(Cl)c2)CC[C@H](O)CC1` [Compound 299, (1s,4s)-4-(aminomethyl)-4-(3,4-dichlorophenyl)cyclohexanol]: the 50% inhibitory concentration (IC50) in experiment [1] (setting [5]) was 3870 nM.
On the same count and under the same terms, with `COc1ccc([C@]2(CN(C)C)CCCC[C@H]2O)cc1` (single isomer, unassigned) [155 E1, Cis-2-((dimethylamino)methyl)-2-(4-methoxyphenyl)cyclohexanol] the figure was 2990 nM.
`CNC[C@]1(c2ccc(Cl)cc2)CCCC[C@H]1O` (single isomer, unassigned) [136 E2, trans-2-(4-chlorophenyl)-2-((methylamino)methyl)-cyclohexanol]: in experiment [2], the IC50 came out at 3370 nM.
Same read-out and setting: with `NC[C@]1(c2ccc(Cl)c(Cl)c2)CCC[C@H](O)C1` (single isomer, unassigned) [184 E1, Cis-3-(aminomethyl)-3-(3,4-dichlorophenyl)cyclohexanol] the figure was 213 nM.
On to `CN(C)C[C@]1(c2ccc(Cl)c(Cl)c2)CCCC[C@H]1O` (single isomer, unassigned) [153 E1, trans-2-(3,4-dichlorophenyl)-2-((dimethylamino)methyl)cyclohexanol], for which the half-maximal inhibitory concentration (IC50) in experiment [1] (setting [5]) was found to be 17 nM; in experiment [2], 85 nM.
Take `CNC[C@]1(c2ccc(OC)cc2)CCCC[C@H]1O` (single isomer, unassigned) [140 E2, (±) trans-2-(4-Methoxyphenyl)-2-((methylamino)methyl)cyclohexanol]: in experiment [2], the IC50 is 5670 nM.
With `OC1CCCC1NCC1(c2ccc(Cl)c(Cl)c2)CCCCC1` (racemic) [Compound 116, (±) 2-((1-(3,4-dichlorophenyl)cyclohexyl)methylamino)cyclopentanol], the results for the half-maximal inhibitory concentration (IC50) in experiment [1] (setting [5]) and in experiment [2] were 2060 nM and 3 nM, respectively.
With `CNC[C@]1(c2ccc(OC(F)(F)F)cc2)CCCC[C@H]1O` (single isomer, unassigned) [146 E2, trans-2-((Methylamino)methyl)-2-(4-(trifluoromethoxy)phenyl) cyclohexanol], the IC50 in experiment [1] (setting [5]) came out at 2280 nM.
Turning to `CCN(C)[C@H]1CC[C@@](CN)(c2ccc(Cl)c(Cl)c2)CC1` [Compound 290, trans-4-(aminomethyl)-4-(3,4-dichlorophenyl)-N-ethyl-N-methylcyclo-hexanamine], the values for the half-maximal inhibitory concentration (IC50) in experiment [1] (setting [5]) and in experiment [2] were 992 nM and 1390 nM, respectively.
Regarding `CNC[C@@]1(c2ccc(C(F)(F)F)cc2)CCCC[C@H]1O` (single isomer, unassigned) [143 E2, cis-2-((methylamino)methyl)-2-(4-(trifluoromethyl)phenyl)cyclohexanol], in experiment [1] (setting [5]), the half-maximal inhibitory concentration (IC50) is 7170 nM.
As for `CNC[C@@]1(c2ccc(OC(F)(F)F)cc2)CCCC[C@H]1O` (single isomer, unassigned) [145 E1, cis-2-((Methylamino)methyl)-2-(4-(trifluoromethoxy)phenyl) cyclohexanol], the IC50 in experiment [1] (setting [5]) came to 75 nM; in experiment [2] it was 4730 nM.
Consider `CNC[C@]1(c2ccc(OC(F)(F)F)cc2)CCCC[C@H]1O` (single isomer, unassigned) [146 E1, trans-2-((Methylamino)methyl)-2-(4-(trifluoromethoxy)phenyl) cyclohexanol], for which the IC50 in experiment [1] (setting [5]) worked out at 4540 nM.
As for `CN(C)C[C@@]1(c2ccc(Cl)c(Cl)c2)CCC[C@H](O)C1` (single isomer, unassigned) [191 E2, Trans-3-(3,4-dichlorophenyl)-3-((dimethylamino)methyl)cyclohexanol], the half-inhibitory concentration (IC50) in experiment [2] was found to be 2 nM.
Take `CNC[C@]1(c2ccc(Cl)c(Cl)c2)CC[C@H](O)CC1` [Compound 287, cis-4-(3,4-dichlorophenyl)-4-((methylamino)methyl)cyclohexanol]: the IC50 turned out to be 1040 nM in experiment [1] (setting [5]) and 192 nM in experiment [2].
Take `CNC[C@]1(c2cccc(Cl)c2)CCCC[C@H]1O` (single isomer, unassigned) [138 E1, trans-2-(3-chlorophenyl)-2-((methylamino)methyl)cyclohexanol]: the IC50 was greater than 10000 nM in experiment [1] (hSERT IC50) and 918 nM in experiment [2].
For `NC[C@]1(c2ccc(Cl)c(Cl)c2)CCC[C@H](O)C1` (single isomer, unassigned) [184 E2, Cis-3-(aminomethyl)-3-(3,4-dichlorophenyl)cyclohexanol], in experiment [2], the IC50 was 789 nM.
Regarding `COc1ccc([C@]2(CN(C)C)CCCC[C@H]2O)cc1` (single isomer, unassigned) [155 E2, Cis-2-((dimethylamino)methyl)-2-(4-methoxyphenyl)cyclohexanol], the IC50 in experiment [1] (setting [5]) was 6280 nM.
In the case of `NC[C@@]1(c2ccc(Cl)c(Cl)c2)CCC[C@H](O)C1` (single isomer, unassigned) [185 E2, Trans-3-(aminomethyl)-3-(3,4-dichlorophenyl)cyclohexanol], the concentration for half-maximal inhibition (IC50) in experiment [2] stood at 121 nM.
As to `CNC[C@]1(c2ccc(Cl)cc2)CCCC[C@H]1O` (single isomer, unassigned) [136 E1, trans-2-(4-chlorophenyl)-2-((methylamino)methyl)-cyclohexanol], in experiment [2], the 50% inhibitory concentration (IC50) stood at 2870 nM.
Turning to `CNC[C@]1(c2ccc(C(F)(F)F)cc2)CCCC[C@H]1O` (single isomer, unassigned) [144 E1, trans-2-((Methylamino)methyl)-2-(4-(trifluoromethyl)phenyl) cyclohexanol], the IC50 in experiment [1] (setting [5]) came out at 5630 nM.
On to `CC1(O)CCC(CN)(c2ccc(Cl)c(Cl)c2)CC1` (stereo not drawn) [Compound 275, 4-(aminomethyl)-4-(3,4-dichlorophenyl)-1-methylcyclohexanol], for which the IC50 in experiment [2] turned out to be 518 nM.
Still for that read-out and setting: with `CN(C)C[C@]1(c2ccc(Cl)c(Cl)c2)CCC[C@H](O)C1` (single isomer, unassigned) [190 E1, Cis-3-(3,4-dichlorophenyl)-3-((dimethylamino)methyl)cyclohexanol] the figure was 24 nM; with `NC[C@@]1(c2ccc(Cl)c(Cl)c2)CCC[C@H](O)C1` (single isomer, unassigned) [185 E1, Trans-3-(aminomethyl)-3-(3,4-dichlorophenyl)cyclohexanol], 421 nM.
Consider `CC1(O)CCC(CN)(c2ccc(Cl)c(Cl)c2)CC1` (stereo not drawn) [Compound 272, 4-(aminomethyl)-4-(3,4-dichlorophenyl)-1-methylcyclohexanol], for which the IC50 in experiment [2] was 2600 nM.
For `CNC(C)C1(c2ccc3ccccc3c2)CCCCC1` (single isomer, unassigned) [58 E1, N-methyl-1-(1-(naphthalen-2-yl)cyclohexyl)ethanamine], the “SERT Mean Specific Binding ± S.E.M.” value in experiment [3] (1 mg/kg PO) is listed as 3245 ± 107 dpm; in experiment [3] (3 mg/kg PO), 3021 ± 182 dpm; in experiment [3] (10 mg/kg PO), 1799 ± 115 dpm; in experiment [3] (30 mg/kg PO), 469 ± 43 dpm. Further, the receptor occupancy at 1 mg/kg in experiment [3] (mouse, 1 mg/kg PO) is 5%; in experiment [4] (mouse, 1 mg/kg PO), 7%. Also, the receptor occupancy at 3 mg/kg in experiment [3] (mouse, 3 mg/kg PO) was 11%; in experiment [4] (mouse, 3 mg/kg PO), 11%. Moreover, the receptor occupancy at 10 mg/kg in experiment [3] (mouse, 10 mg/kg PO) was 47%; in experiment [4] (mouse, 10 mg/kg PO), -2%. Besides, the receptor occupancy at 30 mg/kg in experiment [3] (mouse, 30 mg/kg PO) is 86%; in experiment [4] (mouse, 30 mg/kg PO) it was 24%. Further, the “DAT Mean Specific Binding ± S.E.M.” value in experiment [4] (1 mg/kg PO) was 15732 ± 1360 dpm; in experiment [4] (3 mg/kg PO), 14938 ± 2613 dpm; in experiment [4] (10 mg/kg PO), 17215 ± 2151 dpm; in experiment [4] (30 mg/kg PO) it was 12876 ± 2152 dpm.

The record behind these values is US10562878B2, “Cycloalkylamines as monoamine reuptake inhibitors” (Sunovion Pharmaceuticals Inc., priority 2006, dated 2020).
